In data set [1] the test system is CLB70 (canine B-cell chronic leukemia). The data set can be described thus: Antiproliferative activity (formazan viability). The following applies: mean ± SD. Type of data set: cell-based. As for the experimental part:
(§1) The GL-1 (canine B-cell leukemia) was obtained from Yasuhito Fujino and Hajime Tsujimoto from the Department of Veterinary Internal Medicine University of Tokyo [27], the CLB70 (canine B-cell chronic leukemia) was described earlier by Pawlak et al.. The GL-1 cells were maintained in RPMI 1640 medium with 10% fetal bovine serum (FBS), 100 µg/mL streptomycin, 100 U/mL penicillin and 2 mM L-glutamine (Sigma-Aldrich, Stainheim, Germany). The CLB70 cell line was maintained in Advanced RPMI (Gibco) medium with 100 µg/mL streptomycin, 100 U/mL penicillin and 20% heat-inactivated FBS. Cells were cultured at 37 °C in the incubator with 95% humidified atmosphere and 5% CO2. The antiproliferative activity was tested according to the procedure described previously. The tested lactones were prepared within a concentration range of 6.25–50 µg/mL in the culture medium (DMSO concentration was less than 1% in each dilution). The activity curves used to calculate IC50 are presented in the (Supplementary information Figures S7–S18). The optical density of formed formazan in untreated control cells was assigned as 100%. Viability of test samples was calculated as: % Viability = (average OD for test group/average OD for control group) × 100. The results were determined from more than 3 independent experiments (four wells each) and presented as mean IC50 value ± SD.

Data set [2] relates to GL-1 (canine B-cell leukemia). Put plainly: Antiproliferative activity (formazan viability). The format is cell-based. The following applies: GL-1 cell line, mean ± SD. The method, then: as §1
In data set [3] the test system is Proteus mirabilis ATCC 35659. Put plainly: Disc diffusion antimicrobial test. The format is cell-based. The following applies: includes 6 mm disc, 24 h at 37 °C, racemic compounds. For orientation: A growth-free zone around the sample is the usual read-out of agar diffusion tests.
For data set [4], the system named is Bacillus cereus ATCC 10876. Put plainly: Disc diffusion antimicrobial test. Particulars: includes 6 mm disc, 24 h at 37 °C, racemic compounds. The format is cell-based. The method, then: (§2) The antimicrobial activity of racemic halolactones were tested towards three bacterial strains classified as Gram-negative (Escherichia coli ATCC 25922, Pseudomonas aeruginosa ATCC 27853, Proteus mirabilis ATCC […]) and Gram-positive (Bacillus cereus ATCC 10876) and two fungal strains (Candida albicans ATCC 10231 and Aspergillus brasiliensis ATCC 16404). The microorganisms were supplied by Pasteur Institute of Algiers (Algeria).
(§3) The tests were carried out using the disc diffusion method. Briefly, overnight microbial cultures were adjusted to 0.5 MacFarland turbidity standards and spread in Petri dishes containing Mueller–Hinton and Sabouraud media for bacteria and fungi, respectively. The paper discs (6 mm diameter) was sterilized and impregnated with lactone dissolved in DMSO. Then, the discs were placed on the inoculated agar. The negative controls were discs immersed in pure DMSO. The plates were incubated for 24 h at 37 °C (bacteria) and for 48 h at 25 °C (yeast) and 5–7 days for fungi. Then, the inhibition zone diameters were determined in millimeters (including disc diameter of 6 mm). The test was carried out in triplicates.

Data set [5] deals with Escherichia coli ATCC 25922. The data set can be described thus: Disc diffusion antimicrobial test. The format is cell-based. The following applies: includes 6 mm disc, 24 h at 37 °C, racemic compounds. As for the experimental part: as §2, §3
Where [6] appears, read: Canis lupus familiaris, CLB70, CLB70 cell line, read-out: IC50.
Where [7] appears, read: Canis lupus familiaris, B-cell, read-out: IC50.

≈ marks a conversion by molar mass, not a printed value. Where two headings read alike, the source gives them in different places.

The term IC50 denotes the concentration that inhibits the measured activity by half. The term melting point denotes the temperature of the solid-liquid transition. `C[C@@H](Br)[C@]12CCCC[C@H]1CC(=O)O2` [7a, (−)-(1S,6S,1′R)-1-(1′-Bromoethyl)-9-oxabicyclo[4.3.0]nonan-8-one] had a melting point of 44 to 48 °C. Further, in data set [1] (setting [6]), the IC50 turned out to be 19.4 ± 0.35 µg/mL (≈ 78.5 µM). For the same compound, in data set [2] (setting [7]), the IC50 was found to be 15.6 ± 0.79 µg/mL (≈ 62.9 µM).

With `CC(Cl)C12CCCCC1CC(=O)O2` (centres unmarked) [compound 8, 1-(1′-Chloroethyl)-9-Oxabicyclo[4.3.0]nonan-8-one], the “diameter of inhibition zone” value in data set [3] is listed as 12 ± 0.00 mm.

In the case of `CC(I)C12CCCCC1CC(=O)O2` (racemic) [rac-6, 1-(1′-Iodoethyl)-9-Oxabicyclo[4.3.0]nonan-8-one], the inhibition zone is on record as 12 ± 0.00 mm in data set [4] and 7 ± 0.00 mm in data set [5]. Also, the “diameter of inhibition zone” value in data set [3] worked out at 11 ± 0.00 mm.

Take `COc1cc([C@@H]2c3cc4c(cc3[C@@H](O[C@@H]3O[C@@H]5CO[C@@H](C)O[C@H]5[C@H](O)[C@H]3O)[C@H]3COC(=O)[C@H]23)OCO4)cc(OC)c1O` [Etoposide, reference compound]: the IC50 is 14.3 ± 2.83 µg/mL (≈ 24.3 µM) in data set [1] (setting [6]) and 4.4 ± 1.14 µg/mL (≈ 7.48 µM) in data set [2] (setting [7]).

With `CC(Br)C12CCCCC1CC(=O)O2` (racemic) [rac-7, 1-(1′-Bromoethyl)-9-Oxabicyclo[4.3.0]nonan-8-one], the figures for the inhibition zone in data set [4] and in data set [5] were 8 ± 0.00 mm and 9 ± 0.00 mm, respectively. Also, in data set [3], the “diameter of inhibition zone” value stood at 12 ± 0.35 mm.

In the case of `C[C@H](I)[C@@]12CCCC[C@@H]1CC(=O)O2` [6b, (+)-(1R,6R,1′S)-1-(1′-Iodoethyl)-9-oxabicyclo[4.3.0]nonan-8-one], the IC50 was found to be 19.93 ± 0.07 µg/mL (≈ 67.8 µM) in data set [1] (setting [6]) and 14.5 ± 2.38 µg/mL (≈ 49.4 µM) in data set [2] (setting [7]).

Take `C[C@@H](Cl)[C@]12CCCC[C@H]1CC(=O)O2` [8a, (−)-(1S,6S,1′R)-1-(1′-Chloroethyl)-9-oxabicyclo[4.3.0]nonan-8-one]: the melting point lay within 37 to 40 °C. The IC50 in data set [1] (setting [6]) turned out to be 23.9 ± 5.14 µg/mL (≈ 118 µM). Also, the IC50 in data set [2] (setting [7]) turned out to be 17.2 ± 3.62 µg/mL (≈ 84.7 µM).

As to `C[C@H](Br)[C@@]12CCCC[C@@H]1CC(=O)O2` [7b, (+)-(1R,6R,1′S)-1-(1′-Bromoethyl)-9-oxabicyclo[4.3.0]nonan-8-one], the IC50 in data set [1] (setting [6]) came to 28.6 ± 4.89 µg/mL (≈ 116 µM); in data set [2] (setting [7]) it was 14.9 ± 1.93 µg/mL (≈ 60.5 µM).

On to `C[C@H](Cl)[C@@]12CCCC[C@@H]1CC(=O)O2` [8b, (+)-(1R,6R,1′S)-1-(1′-Chloroethyl)-9-oxabicyclo[4.3.0]nonan-8-one], for which the IC50 stood at 18.43 ± 1.46 µg/mL (≈ 90.9 µM) in data set [1] (CLB70 cell line), 11.4 ± 0.4 µg/mL (≈ 56.2 µM) in data set [1] (setting [6]), 18.4 ± 1.46 µg/mL (≈ 90.9 µM) in data set [2] (setting [7]) and 11.40 ± 0.40 µg/mL (≈ 56.2 µM) in data set [2].

Compound `C[C@@H](I)[C@]12CCCC[C@H]1CC(=O)O2` [6a, (−)-(1S,6S,1′R)-1-(1′-Iodoethyl)-9-oxabicyclo[4.3.0]nonan-8-one] displayed a melting point of 104 to 107 °C. The IC50 in data set [1] (setting [6]) came out at 19.6 ± 0.51 µg/mL (≈ 66.6 µM). In addition, in data set [2] (setting [7]), the IC50 turned out to be 13.8 ± 1.08 µg/mL (≈ 46.8 µM).

Values taken from paper PMC7022392, “Chemoenzymatic Synthesis of Enantiomeric, Bicyclic δ-Halo-γ-lactones with a Cyclohexane Ring, Their Biological Activity and Interaction with Biological Membranes” (Biomolecules, 2020).
